Reference: PubChem BioAssay (NCI)
“And” between values parts separate entries of the source, which are not always exact repeats. Equal values may be shown once.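 Where inhibition never reached the appropriate level, the endpoint shown equals the highest concentration tested. Otherwise, values were interpolated linearly from a five-concentration, 48-hour dose response in 96-well plates. GI50 is the concentration that inhibits growth by half. Definition used: TGI = concentration required for complete inhibition of growth.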

Key:
Assay in all cases: growth of human tumour cells (NCI), 48 h
OVCAR-4 ovarian = system: OVCAR-4 ovarian
UACC-62 melanoma = system: UACC-62 melanoma
SNB-75 CNS = system: SNB-75 CNS
OVCAR-5 ovarian = system: OVCAR-5 ovarian
SW-620 colon = system: SW-620 colon
SNB-19 CNS = system: SNB-19 CNS
NCI-H23 lung = system: NCI-H23 lung
A498 renal = system: A498 renal
MDA-MB-435 = system: MDA-MB-435
PC-3 prostate = system: PC-3 prostate

Compound | GI50 (OVCAR-4 ovarian) | TGI (OVCAR-4 ovarian) | GI50 (UACC-62 melanoma) | TGI (UACC-62 melanoma) | GI50 (SNB-75 CNS) | TGI (SNB-75 CNS) | GI50 (OVCAR-5 ovarian) | TGI (OVCAR-5 ovarian) | GI50 (SW-620 colon) | TGI (SW-620 colon) | GI50 (SNB-19 CNS) | TGI (SNB-19 CNS) | TGI (NCI-H23 lung) | TGI (A498 renal) | TGI (MDA-MB-435) | TGI (PC-3 prostate) | GI50 (MDA-MB-435) | GI50 (PC-3 prostate) | GI50 (NCI-H23 lung) | GI50 (A498 renal)
O=C1C(=C([O-])c2ccccc2)C(=O)c2ccccc21.O=C1C(=C([O-])c2ccccc2)C(=O)c2ccccc21.[Mn+2] | > 100 µM | > 100 µM | 5.48 µM | > 100 µM | > 100 µM | > 100 µM | > 100 µM | > 100 µM | > 100 µM | > 100 µM | 76.7 µM | > 100 µM |  |  |  |  |  |  |  | 
Cc1ccc(NC(=O)CC/C(CC(=O)C(C)(C)C)=N\NC(=O)C[n+]2ccccc2)cc1C |  | > 100 µM |  | > 100 µM |  | > 100 µM |  | > 100 µM |  | > 100 µM |  | > 100 µM | > 100 µM | > 100 µM |  |  |  |  |  | 
C/C(=N\OCC(O)CNCCSCc1ccccc1)c1ccccc1Cl (stereo not drawn) |  |  |  | 34.4 µM |  | 39.9 µM |  | 37.9 µM |  | 40.6 µM |  | 39.7 µM | > 100 µM | 31.9 µM | 34.4 µM | 36.2 µM |  |  |  | 
C=C1C(=O)O[C@H]2[C@H](OC(C)=O)[C@@H](C)CCCC3(C)OC3CCC3(CO3)[C@H](O)C[C@@H]12 (stereo partly drawn) | 3.77 µM | 53.8 µM | 11.8 µM | 24.1 µM | 47 µM | > 100 µM | 2.38 µM | 12 µM | 5.16 µM | 19.6 µM | 25.7 µM | 83.1 µM |  |  | 28.6 µM | 18 µM | 9.24 µM | 4.4 µM |  | 
CCOC(=O)C(CCC(N)=O)(CCC(=O)OC)C(=O)OCC |  | > 100 µM |  | > 100 µM |  | > 100 µM |  | > 100 µM |  | > 100 µM |  | > 100 µM | > 100 µM | > 100 µM |  |  |  |  |  | 
OCC[N+]12CCCN1CCC2 |  | > 100 µM |  | > 100 µM |  | > 100 µM |  | > 100 µM |  | > 100 µM |  | > 100 µM | > 100 µM | > 100 µM |  |  |  |  |  | 
O=C(NCCCl)Nc1cccnc1 |  | 90.7 µM |  | > 100 µM |  | 63.1 µM |  |  |  | > 100 µM |  | 80.4 µM | 46.2 µM | 40.5 µM | > 100 µM | > 100 µM |  |  |  | 
Cc1ccc(/C=C(\NC(=O)c2ccccc2)c2nc3ccccc3[nH]2)cc1 |  | > 100 µM |  | > 100 µM |  |  |  | > 100 µM |  | > 100 µM |  | > 100 µM | > 100 µM | > 100 µM |  |  |  |  |  | 
CSc1nc2nn(Cc3ccccc3)cc2c(=O)[nH]1 |  | > 100 µM |  | > 100 µM |  | > 100 µM |  | > 100 µM |  | > 100 µM |  | > 100 µM | > 100 µM | > 100 µM |  |  |  |  |  | 
CCC1C(C(=O)Nc2ccccc2C)=C(C)NC(C)=C1c1ccccc1C (stereo not drawn) |  | > 100 µM |  | > 100 µM |  | > 100 µM |  | > 100 µM |  | > 59.9 µM |  | > 100 µM | > 100 µM | > 100 µM |  |  |  |  |  | 
CCn1c2ccccc2c(=O)c2c(OC)ccc(OC)c21 |  | > 100 µM |  | > 100 µM |  |  |  | > 100 µM |  | > 100 µM |  | > 100 µM | > 100 µM | > 100 µM |  |  |  |  |  | 
O=C(N/C(=C\c1cccc([N+](=O)[O-])c1)c1nc2ccccc2[nH]1)c1ccccc1 |  | > 100 µM |  | > 100 µM |  | > 100 µM |  | > 100 µM |  | > 100 µM |  | > 100 µM | > 100 µM | > 100 µM |  |  |  |  |  | 
C=CC(=O)NC(N)=NC#N |  | 304 µM |  | 294 µM |  | 289 µM |  | 317 µM | 160 µM | 314 µM |  | 523 µM | 344 µM | 285 µM |  |  |  |  |  | 
CCN(CC)CC(C)C(=O)/C=C/c1ccc(C)cc1 (stereo not drawn) |  | 4.26 µM |  | 12.2 µM |  | 3.17 µM |  | 28 µM |  | 2.96 µM |  | 30.5 µM | 19.9 µM | 20.6 µM |  |  |  |  |  | 
O=C(CCc1ccccc1)NS(=O)(=O)c1ccccc1 |  | > 100 µM |  | > 100 µM |  | > 100 µM |  | > 100 µM |  | > 100 µM |  | > 100 µM | > 100 µM | > 100 µM |  |  |  |  |  | 
CC(C)[C@@](O)(c1ccc2cc(OC(F)F)c(OC(F)F)cc2c1)c1cn[nH]n1 | 17.1 µM | 86 µM | 15.1 µM | 31 µM | 15.1 µM | 40.4 µM | 21.7 µM | 55.6 µM | 19.7 µM | 43.2 µM | 20.8 µM | 51.2 µM | 32.2 µM |  | 33.3 µM | 36 µM | 16.4 µM | 14.9 µM | 14.3 µM | 
Oc1ccc2ccccc2c1N=Nc1cc(Cl)ccc1Cl |  | 28.8 µM |  | > 50 µM |  | 23.9 µM |  | > 50 µM |  | > 50 µM |  | > 50 µM | > 50 µM |  | > 50 µM | > 50 µM |  |  |  | 
c1ccncc1 |  | > 100 µM |  | > 100 µM |  | > 100 µM |  | > 100 µM |  | > 100 µM |  | > 100 µM | > 100 µM | > 100 µM |  |  |  |  |  | 
O=[N+]([O-])c1ccc(C(Cl)C(Cl)c2ccc(C(Cl)C(Cl)c3ccc([N+](=O)[O-])cc3[N+](=O)[O-])cc2)c([N+](=O)[O-])c1 (stereo not drawn) | 0.326 µM | 8.21 µM and 3.52 µM | 0.247 µM | 2.37 µM and 0.623 µM | 0.231 µM |  |  | 4.83 µM |  | 1.69 µM |  | 18.1 µM | 4.69 µM and 0.582 µM | 11.1 µM and 2.96 µM |  |  |  |  | 0.216 µM | 1.05 µM
N#CCC(=O)N/N=C1/C(=O)N(c2cc(Cl)ccc2Cl)C(=O)C(=O)C1c1nc2ccccc2s1 (stereo not drawn) |  | > 100 µM |  | 93.2 µM |  | > 100 µM |  | > 100 µM |  | > 100 µM |  | > 100 µM | > 100 µM | > 100 µM |  |  |  |  |  | 
NC1CCCCC1N.O=C1C=C/C(=C(/c2ccc(O)c(Br)c2)c2ccccc2S(=O)(=O)[O-])C=C1Br.O=C1C=C/C(=C(/c2ccc(O)c(Br)c2)c2ccccc2S(=O)(=O)[O-])C=C1Br.[Pt+4] | 2.35 µM | > 100 µM | 9.45 µM | > 100 µM | 0.992 µM | > 100 µM | 2 µM | 87.7 µM | 0.578 µM | 52.2 µM | 7.14 µM | > 100 µM | > 100 µM | > 100 µM |  |  |  |  | 2.88 µM | 22.1 µM
O=C1C=CC(=C(c2ccccc2)c2ccc(O)cc2)C=C1 |  | 30.2 µM |  | 28.9 µM |  | 38.2 µM |  | 49.7 µM |  | 90.9 µM |  | 31.7 µM | 42.9 µM |  | 32.5 µM | 47.5 µM |  |  |  | 
